Assay results: US8906829B2, “Synergistic algicidal compositions including hydrazone derivatives and copper” (Dow AgroSciences LLC, priority 2010, dated 2014)

Assays:
C. reinhardtii CC-1928 = experiment: Effect of copper on activity of hydrazones: in vitro growth inhibition of C. reinhardtii in TAP Cu minus / TAP Cu plus medium (Example 10); type: cell-based, Chlamydomonas reinhardtii; conditions: test compound 1 μg/mL, 48 h; for inhibition of growth at 1 µg/mL: Chlamydomonas reinhardtii, TAP Cu minus medium, read-out: % Inhn. Minus Copper Observed; for % Inhn. Plus Copper Observed: TAP Cu plus medium (CuCl2)
Method: In vitro toxicity assays against C. reinhardtii CC-1928 (wild type mt+137c green in dark subclone) obtained from the Chlamydomonas Resource Center at Duke University were conducted using TAP liquid growth medium described by Gorman and Levine Proc. Natl. Acad. Sci. USA 1965, 54, 1665-1669 except that CuSO4.5H2O, normally included as a component of Hutner's trace element stock solution (Hutner et al. Proc. Am. Philos. Soc. 1950, 94, 152-170), was omitted. The TAP medium lacking Cu (TAP Cu minus) was prepared by adding 400 mg NH4Cl, 10 mL of 100× Tris-Acetate (242 g Tris-base and 100 mL glacial acetic acid in 1000 mL milli Q water), and 8.3 mL of 120.5× phosphate buffer (14.34 g K2HPO4 and 7.26 g KH2PO4 in 1000 mL milli Q water) to milli Q water to make a total volume of 1 liter. The medium was treated with 0.5 g Chelex 100 resin (Bio-Rad Analytical grade, 50-100 mesh, sodium form, cat#142-2822) by stirring at room temperature for 1 hour. 900 mL were decanted and 45.9 mg of CaCl2.2H2O, 90 mg of MgSO4.7H2O and 0.9 mL Hutner's trace elements lacking CuSO4.5H2O were added and the solution was filter-sterilized. Medium containing copper (TAP Cu plus) was prepared by adding CuCl2.2H2O to the TAP Cu minus medium at 20 μM. Test compounds were dissolved in dimethylsulfoxide (DMSO) at 2 mg/mL then dilutions in TAP Cu minus and TAP Cu plus media were prepared in sterilized microcentrifuge tubes at 2 μg/mL. 100 μL aliquots of diluted compound were dispensed into flat-bottomed 96-well microtiter plates. C. reinhardtii was maintained under 12 h of light on TAP agar plates at 18° C. A loopful of cells was added to 50 mL of TAP Cu minus medium and the culture incubated with shaking at 200 rpm at 27° C. for 24 h. The culture (10 to 20 mL aliquot) was centrifuged in a bench centrifuge at 2000 rpm for 2 min. The resulting cell pellet was resuspended in 5 mL sterile milli Q water (which had been treated with Chelex 100 resin using 0.5 g resin per liter of water by stirring at room temperature for 1 h), and recentrifuged. The cells were resuspended in TAP Cu minus medium, and the suspension adjusted to 2×10^5 spores per mL. Microtiter plates containing compounds as described above were inoculated with 100 μL of this cell suspension and the plates incubated at 27° C. for 48 h before assessing algal growth by measuring light scattering in a NepheloStar plate-reader. Growth inhibition was determined by comparing growth in the presence of test compound with growth in control wells lacking test compound. Results for growth inhibition by test compounds at 1 μg/mL in TAP Cu plus medium (% Inhn Plus Copper Observed) were compared with predicted values (% Inhn Plus Copper Predicted) that were calculated using the formula set forth by S. R. Colby in Weeds 1967, 15, 20-22 based on results obtained for the same compounds in TAP Cu minus medium (% Inhn Minus Copper Observed). […] Results illustrate that hydrazones and copper produce a synergistic algicidal effect towards C. reinhardtii.

[1] = test system: Synechocystis sp. strain 6803; experiment: Effect of copper on activity of hydrazones: in vitro growth inhibition of Synechocystis in BG-11 Cu minus / Cu plus medium (Example 11); type: cell-based; conditions: 72 h; for % Inhn. Plus Copper Observed: BG-11 Cu plus medium
Method: In vitro toxicity assays against the cyanobacterium (blue-green alga) Synechocystis sp. strain 6803 were conducted using BG-11 medium except that copper micronutrient, normally included as CuSO4.5H2O, was omitted. The medium, termed BG-11 Cu minus, was prepared by dissolving 1.5 g NaNO3, 40 mg K2HPO4, 6 mg citric acid, 1 mg Na2EDTA and 20 mg Na2CO3 in 1 liter of milli Q water and treating the solution with 0.5 g Chelex 100 resin (Bio-Rad Analytical grade, 50-100 mesh, sodium form, cat#142-2822) by stifling at room temperature for 1 h. 900 mL were decanted and 67.5 mg MgSO4.7H2O, 32.4 mg […], 5.4 mg ferric ammonium citrate and 0.9 mL trace metal mix A5 without copper (2.86 g H3BO3, 1.81 g MnCl2.4H2O, 222 mg ZnSO4.7H2O, 390 mg Na2MoO4.2H2O and Co(NO3)2.6H2O in 1 L Milli Q water) was added. The pH was adjusted to 7.1 and the medium was filter-sterilized. Medium containing copper (BG-11 Cu plus) was prepared by adding CuCl2.2H2O to the BG-11 Cu minus medium at 0.2 μM. Test compounds were dissolved in dimethylsulfoxide (DMSO) at 2 mg/mL then appropriate dilutions in BG-11 Cu minus and BG-11 Cu plus media were prepared in sterilized microcentrifuge tubes. 100 μL aliquots were dispensed into flat-bottomed 96-well microtiter plates. Synechocystis was maintained under 24 h of light on BG-11 agar plates at 27° C. A loopful of cells was added to 50 mL of BG-11 Cu minus growth medium and the culture was incubated with shaking at 200 rpm at 27° C. for 24 h. The culture (10 to 20 mL aliquot) was centrifuged in a bench centrifuge at 2400 rpm for 2 min. The resulting cell pellet was resuspended in 5 mL sterile milli Q water (which had been treated with Chelex 100 resin using 0.5 g resin per liter of water by stirring at room temperature for 1 h), and recentrifuged. The cells were resuspended in BG-11 Cu minus medium, and the suspension adjusted to 4×10^5 spores per mL. Microtiter plates containing compounds as described above were inoculated with 100 μL of this cell suspension and the plates incubated at 27° C. for 72 h before assessing algal growth by measuring light scattering in a NepheloStar plate reader. Growth inhibition was determined by comparing growth in the presence of test compound with growth in control wells lacking test compound. Results for growth inhibition by test compounds in BG-11 Cu plus medium (% Inhn Plus Copper Observed) were compared with predicted values (% Inhn Plus Copper Predicted) that were calculated using the formula set forth by S. R. Colby in Weeds 1967, 15, 20-22 based on-results obtained for the same compounds in BG-11 Cu minus medium (% Inhn Minus Copper Observed) and the inhibition attributed to copper chloride alone, as determined by comparing growth in copper-minus and copper-plus media without any test compound across experiments. Results illustrate that hydrazones and copper produce a synergistic algicidal effect towards Synechocystis.

[2] = Synechocystis, Test Concn. 0.0125 μg/mL, BG-11 Cu minus medium, read-out: % Inhn. Minus Copper Observed
[3] = Synechocystis, Test Concn. 0.05 μg/mL, BG-11 Cu minus medium, read-out: % Inhn. Minus Copper Observed

Row | SMILES | inhibition of growth at 1 µg/mL (C. reinhardtii CC-1928) [%] | % Inhn. Plus Copper Observed (C. reinhardtii CC-1928) [%] | melting point [°C] | inhibition of growth at 0.0125 µg/mL [1, 2] [%] | % Inhn. Plus Copper Observed ([1]; Test Concn. 0.0125 μg/mL) [%] | inhibition of growth at 0.05 µg/mL [1, 3] [%] | % Inhn. Plus Copper Observed ([1]; Test Concn. 0.05 μg/mL) [%] | inhibition of growth at 0.00625 µg/mL ([1]; Synechocystis, Test Concn. 0.00625 μg/mL, BG-11 Cu minus medium, read-out: % Inhn. Minus Copper Observed) [%] | % Inhn. Plus Copper Observed ([1]; Test Concn. 0.00625 μg/mL) [%]
1 | C/C(=N\NC(=O)c1ccc(Cl)cc1)c1cccc([N+](=O)[O-])c1O [Compound 23] | -37 | 89 | 241 to 251 | 27 | 92 | – | – | – | –
2 | O=C(N/N=C/c1cc(C(F)(F)F)cc(Cl)c1O)c1ccccc1 [Compound 24] | -2 | 90 | 216 to 222 | – | – | 45 | 93 | – | –
3 | O=C(N/N=C/c1cc(C(F)(F)F)cc(Cl)c1O)c1cccc(F)c1 [Compound 28] | 12 | 97 | 210 to 212 | – | – | 13 | 96 | – | –
4 | O=C(N/N=C/c1cc(C(F)(F)F)cc(Cl)c1O)c1ccc(F)cc1 [Compound 29] | 16 | 96 | 200 to 202 | – | – | 11 | 96 | – | –
5 | O=C(N/N=C/c1cc(C(F)(F)F)cc(Cl)c1O)c1ccccc1O [Compound 30] | 29 | 92 | 258 to 260 | – | – | 0 | 92 | – | –
6 | Cc1ccc(C(=O)N/N=C/c2cc(C(F)(F)F)cc(Cl)c2O)c(O)c1 [Compound 31] | -1 | 88 | 255 to 257 | – | – | 38 | 92 | – | –
7 | Cc1cccc(C(=O)N/N=C/c2cccc(C(F)(F)F)c2O)c1 [Compound 33] | 21 | 97 | 188 to 190 | – | – | 29 | 97 | – | –
8 | O=C(N/N=C/c1cccc(C(F)(F)F)c1O)c1cccc(F)c1 [Compound 34] | 8 | 97 | 176 to 180 | – | – | 34 | 91 | – | –
9 | O=C(N/N=C/c1cccc(C(F)(F)F)c1O)c1ccc(Cl)cc1 [Compound 35] | 9 | 97 | 215 to 216 | – | – | 26 | 91 | – | –
10 | O=C(N/N=C/c1cccc(C(F)(F)F)c1O)c1ccccc1O [Compound 36] | 7 | 96 | 230 to 234 | 28 | 87 | – | – | – | –
11 | Cc1ccc(C(=O)N/N=C/c2cccc(C(F)(F)F)c2O)c(O)c1 [Compound 37] | 12 | 97 | 248 to 253 | 44 | 88 | – | – | – | –
12 | Cc1cccc(C(=O)N/N=C/c2ccc(Cl)c(Cl)c2O)c1 [Compound 38] | 15 | 94 | 212 to 214 | – | – | 49 | 93 | – | –
13 | O=C(N/N=C/c1ccc(Cl)c(Cl)c1O)c1cccc(F)c1 [Compound 39] | 8 | 91 | 215 to 218 | – | – | 31 | 92 | – | –
14 | O=C(N/N=C/c1ccc(Cl)c(Cl)c1O)c1cccc(Cl)c1 [Compound 40] | 22 | 96 | 219 to 222 | – | – | – | – | 4 | 64
15 | Cc1ccc(C(=O)N/N=C/c2ccc(Cl)c(Cl)c2O)c(O)c1 [Compound 41] | 28 | 96 | 271 to 278 | 26 | 93 | – | – | – | –
